Assay results published in patent publication US20210161851A1, “COMBINATION THERAPY OF LYMPHOMA” (Deutsches Krebsforschungszentrum, priority 2019, published 2021).

Tests used:
MyLa cells = test: Cell death assay in CTCL cell line MyLa; format: cell-based
Source text: (§1) ABT-199, ABT-263 and the mouse antibody against human Bcl-2 were obtained from Santa Cruz Biotechnology. DMF and monomethyl fumarate (MMF) were purchased from Sigma-Aldrich. Caspase-3 and cleaved-Caspase-3 antibodies came from Cell Signaling Technology, Ki-67 antibodies from Novacastra. Primary CD4+ T cells were isolated from heparinized whole blood and treated as indicated (Nicolay et al. (2016), Blood 128(6):805-815). Cell lines were obtained from ATCC (HH, J16) or generously donated by Drs. Gniadecki and Pless from Bispebjerg Hospital Copenhagen, Denmark and Dr. Kaltoft, Aarhus University Denmark (SeAx) or Prof. Eichmuiller from DKFZ Heidelberg, Germany (MyLa), and cultured as described (Nikolay et al, ibd.)
(§2) 1.3 Cell Death Assays, Quantitative Reverse Transcript (qRT) PCR, Western Blot were Performed as According to Standard Methods.

[1] = system: caspase 3 cleavage in SeAx cells; test: Western blot of caspase 3 cleavage in SeAx cells; format: cell-based; conditions: 100 or 1000 nM ABT-199, 50 μM DMF
Source text: as §1, §2

J16 cells = test: Cell death assay in non-CTCL cell line J16; format: cell-based; conditions: different concentrations, 24 h
Source text: as §1, §2

[2] = system: caspase 3 cleavage in HH cells; test: Western blot of caspase 3 cleavage in HH cells; format: cell-based; conditions: 100 or 1000 nM ABT-199, 50 μM DMF
Source text: as §1, §2

[3] = system: primary healthy CD4+ T cells; test: Cell death assay in primary CD4+ cells of healthy donors; format: cell-based, human; conditions: different concentrations
Description: (§3) Seven patients with Sezary syndrome (CTCL stage IV) diagnosed according to WHO-EORTC classification of CTCL and criteria of the international society of cutaneous lymphomas were included in the study. As controls, we investigated blood samples of healthy donors (n=7). Informed consent was obtained from all subjects before inclusion. The study was conducted according to ethical guidelines at our institution and the Helsinki Declaration and was approved by the ethics committee II of the University of Heidelberg.
as §1, §2

HH cells = test: Cell death assay in CTCL cell line HH; format: cell-based; conditions: different concentrations, 24 h
Source text: as §1, §2

primary CD4+ CTCL cells = test: Cell death assay in primary CD4+ CTCL cells of Sezary patients; format: cell-based, human; conditions: increasing concentrations, 24 h and 48 h
Description: as §3, §1, §2

SeAx xenograft tumors [4] = test: Orthotopic SeAx xenograft CTCL mouse model: tumor growth and survival; format: in vivo, NSG mice; conditions: for tumor growth: ABT-199 100 mg/kg once oral, DMF 30 mg/kg i.p. once daily for 28 days; for overall survival: SeAx xenograft NSG mice; for animals still under follow-up (survival rate): day 30, one day after the end of the treatment phase
Description: (§4) All animal experiments were in accordance with the approved guidelines of the local Governmental Committee for Animal Experimentation (RP Karlsruhe, Germany, license G282/15). Mice were maintained at a 12 h light-dark cycle with unrestricted diet and water. Under isoflurane inhalation anesthesia (1-1.5% in O2, 0.5 L/min), 3×10^6 SeAx cells suspended in 30 μl of PBS/Matrigel (1:1, v/v) were injected intradermally (i.d.) into the right flank of 6-7-week-old female NOD SCID gamma (NSG) mice recruited from the Center for Preclinical Research, DKFZ, Heidelberg and kept on Kliba diet 3307 with n=8 mice/group. When tumors reached palpable size (mean of 0.025 cm^3) mice were randomized and treated first as indicated once by oral gavage with ABT-199 dissolved in a vehicle of […], 30% polyethylenglycol 400 and 10% ethanol at a concentration of 100 mg/kg body weight, 10 μl/g mouse or vehicle alone as indicated. One day later, intraperitoneal (i.p.) treatment with DMF once daily for 28 days was started as indicated. The compound, dissolved at 3 mg/ml in 30° C. pre-warmed PBS, was given with 10 μl/g mouse at a dose of 30 mg/kg bodyweight. For control, PBS (10 μl/g mouse) was injected. Tumor volume was measured with a caliper 2-3 times a week and calculated according to the formula: V=(length (mm)×width (mm)^2)/2. Necropsies were taken when one tumor diameter reached 1.5 cm or when mice reached stop criterion of the German Society of Laboratory Animal Sciences (GV-SOLAS), here defined as survival. For tissue staining, the liver and a quarter of the tumor was fixed in 4% PBS-buffered formaldehyde and embedded into paraffin according to routine procedures.

SeAx xenograft tumors [5] = test: Histology and immunohistochemistry of SeAx xenograft tumors; format: in vivo, NSG mice; conditions: for Ki-67 positivity (proliferation index) / caspase 3 cleavage within the xenograft tumors: immunohistochemistry, 400×
Description: as §4
Hematoxylin and eosin staining as well as immunohistochemistry were performed on 5 μm paraffin sections as described. For immunohistochemical stainings, paraffin-embedded tissue was sectioned into 5 μm slices. Ki-67 was detected in deparaffinized tissue specimens after antigen retrieval (20 min at boiling temperature in 10 mM sodium citrate pH 6.0), block of endogenous peroxidases in 3% H2O2 in PBS for 10 min, block in 100% goat serum for 1 h at room temperature (RT) and incubation overnight at 4° C. in a 1:250 dilution of anti-Ki-67 antibodies (NCL-Ki67p, Novacastra). Slides were incubated with appropriate horse-radish peroxidase (HRP)-coupled secondary antibody (1:200) for 1 h at RT, incubated with HRP substrate solution (DAB/H2O2, Sigma, Munich/Germany). Nuclei were counterstained with hematoxylin for 1 min. Mounting was in Eukitt (R. Langenbrinck, Teningen/Germany). Sections incubated without primary antibody were included as negative controls.
Immunohistochemical assessment of the tissue slides was performed by a dermatologist (JPN) and a pathologist (TA).
For microscopy, the following Nikon objective lenses were used (Nikon, Tokio, Japan): Nikon Plan Apoλ 2×/0.1, Nikon Plan Apoλ 20×/0.75. Microscopy was performed at 22° C. throughout with cryopreserved or paraffin sections. As fluorochromes phycoerythrin (PE), fluorescein-isothiocyanate (FITC) and DAPI were used for red, green and blue stainings, respectively. The micrographs were taken with a Nikon DS-Fi2 camera using the Nikon DS-L3 software.

SeAx cells = test: Cell death assay in CTCL cell line SeAx; format: cell-based; conditions: different concentrations, 24 h
Source text: as §1, §2

[6] = system: Bax/Bak interaction in HH cells; test: Proximity ligation assay (PLA) of Bax/Bak in HH cells; format: cell-based
Description: (§5) In order to determine protein interactions a proximity ligation assay was performed with Duolink® PLA by Sigma-Aldrich as described before (Schroeder et al. (2017), Nat. Publ. Gr. October 2016:1-12). The rabbit antibody against Bak and the mouse antibody against Bax were obtained from Abcam.

[7] = system: Bax/Bak interaction in SeAx cells; test: Proximity ligation assay (PLA) of Bax/Bak in SeAx cells; format: cell-based
Description: as §5

Bcl-xL = Bcl-xL (Homo sapiens, UniProt Q07817); conditions: inhibition of Bcl-xL; cited from earlier work
Bcl-2 = test: Western blot of Bcl-2 family protein levels upon NFκB inhibition; format: cell-based, human; conditions: J16, HH and SeAx cells
Source text: as §1, §2

Bcl-xL, sequence (Q07817 whole entry, species assumed): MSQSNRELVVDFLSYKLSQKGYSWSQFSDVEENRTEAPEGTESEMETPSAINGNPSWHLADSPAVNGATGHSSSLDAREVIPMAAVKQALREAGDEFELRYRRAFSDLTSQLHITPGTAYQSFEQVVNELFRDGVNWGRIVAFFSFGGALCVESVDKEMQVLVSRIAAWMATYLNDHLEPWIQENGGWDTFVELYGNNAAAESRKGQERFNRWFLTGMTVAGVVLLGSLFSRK

Row | Structure (SMILES) | cell death sensitivity (MyLa cells) | caspase 3 cleavage [1] | cell death sensitivity (J16 cells) | caspase 3 cleavage [2] | cell death effect [3] | cell death response (HH cells) | specific cell death (primary CD4+ CTCL cells) | tumor growth (SeAx xenograft tumors [4]) | overall survival (SeAx xenograft tumors [4]) | animals still under follow-up (survival rate) (SeAx xenograft tumors [4]) [%] | animals dropped out of the group (SeAx xenograft tumors [4]; within the first 10 days after monotreatment, ABT-199 100 mg/kg once by oral gavage, n=8) | Ki-67 positivity (proliferation index) (SeAx xenograft tumors [5]) | caspase 3 cleavage within the xenograft tumors (SeAx xenograft tumors [5]) | cell death sensitivity (SeAx cells) | Bax/Bak interaction (PLA) [6] | green fluorescence (Bax/Bak interaction, PLA) [7] | number of circulating platelets (Bcl-xL) | protein levels of Bcl-2 or other anti-apoptotic Bcl-2 family members like Mcl-1 (Bcl-2) | mitotic activity (mitosis figures in H&E specimens) (SeAx xenograft tumors [5]; 200× magnification)
1 | CC1(C)CCC(CN2CCN(c3ccc(C(=O)NS(=O)(=O)c4ccc(NCC5CCOCC5)c([N+](=O)[O-])c4)c(Oc4cnc5[nH]ccc5c4)c3)CC2)=C(c2ccc(Cl)cc2)C1 [ABT-199, 4-[4-[[2-(4-chlorophenyl)-4,4-dimethyl-1-cyclohexen-1-yl]methyl]-1-piperazinyl]-N-[[3-nitro-4-[[(tetrahydro-2H-pyran-4-yl)methyl]amino]phenyl]sulfonyl]-2-(1H-pyrrolo[2,3-b]pyridin-5-yloxy)-Benzamide] | high cell death sensitivity | dose-dependent caspase 3 cleavage | by far attenuated cell death sensitivity | had no effect | weak effect | barely any response | dose-dependent specific CD4+ T cell death after 24 h and 48 h with significantly higher rates in Sezary patients' cells than in those from healthy donors | weak, but not significant decrease in tumor growth | no advantage with respect to survival | 0 | 3/8 | slightly reduced positivity for Ki-67 | slightly increased caspase 3 cleavage | high cell death sensitivity | had no effect | significant increase in green fluorescence | – | – | –
2 | CC1(C)CCC(c2ccc(Cl)cc2)=C(CN2CCN(c3ccc(C(=O)NS(=O)(=O)c4ccc(N[C@H](CCN5CCOCC5)CSc5ccccc5)c(S(=O)(=O)C(F)(F)F)c4)cc3)CC2)C1 [ABT-263, (R)-4-(4-((4′-chloro-4,4-dimethyl-3,4,5,6-tetrahydro-[1,1′-biphenyl]-2-yl)methyl)piperazin-1-yl)-N-((4-((4-morpholino-1-(phenylthio)butan-2-yl)amino)-3-((trifluoromethyl)sulfonyl)phenyl)sulfonyl)benzamide] | high cell death sensitivity | – | by far attenuated cell death sensitivity | – | weak effect | barely any response | dose-dependent specific CD4+ T cell death after 24 h and 48 h with significantly higher rates in Sezary patients' cells than in those from healthy donors | – | – | – | – | – | – | high cell death sensitivity | – | – | concentration-dependent decrease in the number of circulating platelets | – | –
3 | CN(C)CC[C@H](CSc1ccccc1)Nc1ccc(S(=O)(=O)NC(=O)c2ccc(N3CCN(Cc4ccccc4-c4ccc(Cl)cc4)CC3)cc2)cc1[N+](=O)[O-] [ABT-737, 4-[4-[(4′-chloro[1,1′-biphenyl]-2-yl)methyl]-1-piperazinyl]-N-[[4-[[(1R)-3-(dimethylamino)-1-[(phenylthio)methyl]propyl]amino]-3-nitrophenyl]sulfonyl]-Benzamide] | – | – | – | – | – | – | – | – | – | – | – | – | – | – | – | – | concentration-dependent decrease in the number of circulating platelets | – | –
4 | COC(=O)/C=C/C(=O)OC [DMF, Dimethyl (E)-butenedioate] | – | – | – | could induce significant caspase 3 cleavage | – | – | – | weak, but not significant decrease in tumor growth | overall survival benefit | 13 | – | slightly reduced positivity for Ki-67 | slightly increased caspase 3 cleavage | – | had no effect | – | – | no influence | significant decrease in mitotic activity
